DC50, Dmax and IC50 data for 16 compounds are collected here from patent US20250214991A1 (Oncopia Therapeutics, Inc. d/b/a/ SK Life Science Labs, priority 2022, published 2025).

In general, IC50 refers to the concentration at which inhibition is half-maximal. A low value points to greater potency in that assay.

A value given as a limit tells only on which side of the number the result lay.

Test [1] concerns the target T1, IKZF2 (Homo sapiens (Human), UniProt Q96SW2+Q9UKS7). The test is described as follows: In vitro IKZF2 FACS Assay in Jurkat cells. In kind it is cell-based. Conditions: 24 hrs; for DC50: half maximal degradation concentration; for Dmax: maximal degradation percentage. As to the method: In vitro IKZF2 FACS Assay
DC50, A: <1 nM; B: 1-10 nM; C: 10-100 nM; D: 100-1000 nM; E: >1000 nM. Dmax, A: >80%; B: 60-80%; C: 40-60%; D: 20-40%; E: <20%.

The target in test [2] is CRBN/DDB1 (Homo sapiens (Human), UniProt Q96SW2). In words: IC50 measurements for binding to CRBN/DDB1 (HTRF). The following applies: His tagged CRBN+DDB, Cy5-labeled Thalidomide probe, one hour. The essentials: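 Serially diluted compounds compete with a Cy5-labeled thalidomide tracer (60 nM) for His-tagged CRBN-DDB1 (2 nM), detected via anti-6His Tb cryptate (0.4 nM); buffer HEPES pH 7.5 with TCEP, Brij-35, NaCl, BSA. One-hour room-temperature incubation, HTRF signal read, IC50 by four-parameter curve.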

Test [3] deals with T1, IKZF2. In words: In vitro IKZF2 HiBit Assay (HEK293T Flp-in-HiBiT cells). In kind it is cell-based. Conditions: HEK293T Flp-in-HiBiT cells, 6 hrs incubation; for DC50: read-out: IKZF2 HiBit DC50; for Dmax: HEK-293T, read-out: IKZF2 HiBit Dmax (%). In a few lines: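 Remaining tagged Helios was read as lytic HiBiT/LgBiT luminescence normalized to DMSO, yielding binned DC50 and Dmax values. Treatment ran 6 h, with compounds at 11 three-fold doses diluted from 1 mM and 0.1% final DMSO. The cells were HEK293T Flp-in with CRISPR knock-in of HiBiT at the IKZF2 N-terminus.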

Test [4] concerns the target IKZF1 (Homo sapiens (Human), UniProt Q13422+Q96SW2). The test is described as follows: In vitro IKZF1 HiBit Assay (HEK293T Flp-in-HiBiT-IKZF1 stable cell line). In kind it is cell-based. Conditions: HEK293T Flp-in-HiBiT-IKZF1 stable cell line, 6 hrs incubation; for DC50: read-out: IKZF1 HiBit DC50; for Dmax: HEK-293T, read-out: IKZF1 HiBit Dmax (%). The essentials:
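Degradation was measured as loss of luminescence from the HiBiT-IKZF1 tag after 6 h compound treatment, with 0.1% final DMSO, in stable HEK293T Flp-in cells. Values were normalized to DMSO, giving the 50% degradation concentration and the maximal degradation range.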
For orientation: HiBiT is a short tag that completes a luciferase, so light tracks the accessible tagged protein.

IKZF1, sequence (Q13422 whole entry): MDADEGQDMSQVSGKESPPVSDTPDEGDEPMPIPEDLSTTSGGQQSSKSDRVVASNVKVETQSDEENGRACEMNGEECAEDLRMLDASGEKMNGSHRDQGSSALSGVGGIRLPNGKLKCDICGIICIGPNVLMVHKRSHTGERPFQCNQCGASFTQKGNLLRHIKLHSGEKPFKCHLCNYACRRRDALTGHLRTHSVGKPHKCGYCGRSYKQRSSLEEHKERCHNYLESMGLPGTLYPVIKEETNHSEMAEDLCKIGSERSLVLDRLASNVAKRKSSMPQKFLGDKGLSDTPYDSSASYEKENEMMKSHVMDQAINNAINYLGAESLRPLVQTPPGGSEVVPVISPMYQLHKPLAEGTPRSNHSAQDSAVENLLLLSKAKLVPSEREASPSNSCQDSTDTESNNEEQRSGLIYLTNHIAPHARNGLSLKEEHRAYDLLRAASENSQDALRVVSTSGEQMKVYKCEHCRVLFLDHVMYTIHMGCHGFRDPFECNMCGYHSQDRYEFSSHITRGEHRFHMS
IKZF1, sequence (Q96SW2 whole entry): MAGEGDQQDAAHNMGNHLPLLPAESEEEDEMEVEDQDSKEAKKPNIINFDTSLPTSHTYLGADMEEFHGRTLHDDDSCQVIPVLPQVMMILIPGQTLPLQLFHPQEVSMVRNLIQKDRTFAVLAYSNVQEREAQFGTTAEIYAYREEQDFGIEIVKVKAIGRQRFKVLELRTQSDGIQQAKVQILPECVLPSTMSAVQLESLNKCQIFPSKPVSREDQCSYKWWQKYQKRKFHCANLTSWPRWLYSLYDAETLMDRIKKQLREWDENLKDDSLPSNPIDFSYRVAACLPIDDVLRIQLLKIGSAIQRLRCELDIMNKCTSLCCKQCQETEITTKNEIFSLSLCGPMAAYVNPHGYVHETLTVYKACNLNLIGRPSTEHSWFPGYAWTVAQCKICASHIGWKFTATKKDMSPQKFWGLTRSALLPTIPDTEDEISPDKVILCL
IKZF1, sequence (Q16531 2-1140 partner): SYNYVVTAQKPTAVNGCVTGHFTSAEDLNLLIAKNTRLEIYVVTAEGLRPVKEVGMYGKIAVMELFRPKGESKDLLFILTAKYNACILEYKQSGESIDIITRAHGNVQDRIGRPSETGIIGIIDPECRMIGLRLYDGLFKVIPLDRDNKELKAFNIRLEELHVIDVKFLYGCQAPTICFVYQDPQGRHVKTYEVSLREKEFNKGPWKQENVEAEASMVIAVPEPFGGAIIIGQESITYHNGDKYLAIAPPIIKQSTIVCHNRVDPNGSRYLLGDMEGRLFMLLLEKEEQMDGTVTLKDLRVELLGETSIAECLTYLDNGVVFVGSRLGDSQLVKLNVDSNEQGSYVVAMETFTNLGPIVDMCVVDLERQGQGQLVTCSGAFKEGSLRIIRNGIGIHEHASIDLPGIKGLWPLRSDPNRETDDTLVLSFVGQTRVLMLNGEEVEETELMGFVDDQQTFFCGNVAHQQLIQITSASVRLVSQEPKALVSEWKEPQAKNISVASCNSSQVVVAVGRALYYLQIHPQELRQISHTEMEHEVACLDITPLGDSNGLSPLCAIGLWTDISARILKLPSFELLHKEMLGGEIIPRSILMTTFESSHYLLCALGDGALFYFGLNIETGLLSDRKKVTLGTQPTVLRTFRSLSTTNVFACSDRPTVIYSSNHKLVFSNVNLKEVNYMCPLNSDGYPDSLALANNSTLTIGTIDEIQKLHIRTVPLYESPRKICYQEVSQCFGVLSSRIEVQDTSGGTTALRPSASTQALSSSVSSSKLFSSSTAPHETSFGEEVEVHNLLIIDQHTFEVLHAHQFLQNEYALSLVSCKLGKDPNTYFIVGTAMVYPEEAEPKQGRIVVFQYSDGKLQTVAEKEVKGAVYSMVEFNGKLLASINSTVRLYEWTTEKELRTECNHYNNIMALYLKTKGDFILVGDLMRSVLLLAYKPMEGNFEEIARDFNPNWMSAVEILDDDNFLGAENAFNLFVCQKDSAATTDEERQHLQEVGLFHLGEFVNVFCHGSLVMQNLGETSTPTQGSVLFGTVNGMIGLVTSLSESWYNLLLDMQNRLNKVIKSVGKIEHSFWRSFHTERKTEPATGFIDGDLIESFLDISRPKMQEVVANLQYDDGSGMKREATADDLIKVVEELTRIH
CRBN/DDB1, sequence (Q96SW2 whole entry, species assumed): as the sequence (Q96SW2 whole entry) above
CRBN/DDB1, sequence (Q16531 whole entry partner, species assumed): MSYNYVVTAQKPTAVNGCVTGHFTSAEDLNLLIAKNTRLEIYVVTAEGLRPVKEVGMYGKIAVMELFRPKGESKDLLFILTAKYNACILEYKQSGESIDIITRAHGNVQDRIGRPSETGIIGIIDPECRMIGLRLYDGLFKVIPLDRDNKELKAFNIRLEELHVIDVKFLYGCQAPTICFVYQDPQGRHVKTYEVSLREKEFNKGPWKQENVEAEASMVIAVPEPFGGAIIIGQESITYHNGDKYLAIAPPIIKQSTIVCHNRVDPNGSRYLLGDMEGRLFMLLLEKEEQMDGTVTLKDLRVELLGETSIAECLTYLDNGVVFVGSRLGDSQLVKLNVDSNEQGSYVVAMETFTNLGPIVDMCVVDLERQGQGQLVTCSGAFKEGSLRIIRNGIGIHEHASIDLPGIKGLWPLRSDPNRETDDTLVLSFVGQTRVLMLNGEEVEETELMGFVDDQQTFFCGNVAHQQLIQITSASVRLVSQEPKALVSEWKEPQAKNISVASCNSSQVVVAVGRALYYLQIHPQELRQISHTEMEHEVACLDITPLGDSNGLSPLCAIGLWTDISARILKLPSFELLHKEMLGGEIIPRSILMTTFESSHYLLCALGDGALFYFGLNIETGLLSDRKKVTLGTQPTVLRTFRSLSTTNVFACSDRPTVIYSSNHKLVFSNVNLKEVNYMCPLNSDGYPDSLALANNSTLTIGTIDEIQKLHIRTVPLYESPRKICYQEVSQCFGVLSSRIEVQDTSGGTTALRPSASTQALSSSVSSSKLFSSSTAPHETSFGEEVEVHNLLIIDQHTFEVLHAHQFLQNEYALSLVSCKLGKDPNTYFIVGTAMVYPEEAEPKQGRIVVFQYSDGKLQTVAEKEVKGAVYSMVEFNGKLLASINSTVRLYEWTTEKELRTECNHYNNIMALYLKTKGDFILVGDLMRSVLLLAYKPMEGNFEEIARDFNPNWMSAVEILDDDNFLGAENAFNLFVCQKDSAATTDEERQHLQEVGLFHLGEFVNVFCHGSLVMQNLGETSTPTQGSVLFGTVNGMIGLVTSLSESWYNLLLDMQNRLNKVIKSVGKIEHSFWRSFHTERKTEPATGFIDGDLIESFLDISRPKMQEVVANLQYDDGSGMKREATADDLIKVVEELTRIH
T1 sequence (Q9UKS7 whole entry): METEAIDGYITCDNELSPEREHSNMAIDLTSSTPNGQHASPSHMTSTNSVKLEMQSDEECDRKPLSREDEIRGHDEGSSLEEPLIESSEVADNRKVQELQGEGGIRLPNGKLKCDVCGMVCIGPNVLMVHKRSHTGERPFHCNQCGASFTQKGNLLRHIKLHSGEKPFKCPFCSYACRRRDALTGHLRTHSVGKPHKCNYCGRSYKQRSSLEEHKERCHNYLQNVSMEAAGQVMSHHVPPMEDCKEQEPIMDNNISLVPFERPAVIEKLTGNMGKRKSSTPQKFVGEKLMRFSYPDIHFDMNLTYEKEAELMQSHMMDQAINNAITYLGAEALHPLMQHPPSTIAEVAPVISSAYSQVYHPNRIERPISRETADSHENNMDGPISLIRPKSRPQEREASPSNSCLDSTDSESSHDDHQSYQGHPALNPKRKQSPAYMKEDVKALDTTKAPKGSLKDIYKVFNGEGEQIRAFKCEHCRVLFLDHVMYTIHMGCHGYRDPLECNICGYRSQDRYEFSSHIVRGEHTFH
T1 sequence (Q96SW2 whole entry): as the sequence (Q96SW2 whole entry) above
T1 sequence (Q16531 2-1140 partner): as the sequence (Q16531 2-1140 partner) above

Take `C[C@H](NCc1cc(-c2ccc3c(c2)CN(C2CCC(=O)NC2=O)C3=O)n2cncc2c1)c1ccccc1` (single isomer, unassigned) [Example 14, 3-(1-oxo-5-(7-((((S*)-1-phenylethyl)amino)methyl)imidazo[1,5-a]pyridin-5-yl)isoindolin-2-yl) piperidine-2,6-dione]: in test [1], the DC50 was 10 to 100 nM and the Dmax was 40 to 60%. The compound further came in with an IC50 in test [2] of 100 to 500 nM.

In test [1], `C[C@@H](c1ccccc1)N(C)Cc1cc(-c2ccc3c(c2)CN(C2CCC(=O)NC2=O)C3=O)n2cncc2c1` (single isomer, unassigned) [Example 15, 3-(5-(7-((methyl ((S*)-1-phenylethyl)amino)methyl)imidazo[1,5-a]pyridin-5-yl)-1-oxoisoindolin-2-yl) piperidine-2,6-dione] registered a DC50 of 10 to 100 nM and a Dmax of 20 to 40%. In addition, the IC50 in test [2] was 1000 to 5000 nM.

Consider `C[C@@H](NCc1cc(-c2ccc3c(c2)CN(C2CCC(=O)NC2=O)C3=O)n2cncc2c1)c1ccccc1` (single isomer, unassigned) [Example 16, 3-(1-oxo-5-(7-((((R*)-1-phenylethyl)amino)methyl)imidazo[1,5-a]pyridin-5-yl)isoindolin-2-yl) piperidine-2,6-dione], for which, in test [1], the DC50 lay within 10 to 100 nM and the Dmax lay in the range of 40 to 60%. This compound returned an IC50 in test [2] of 500 to 1000 nM.

In test [1], `C[C@H](c1ccccc1)N(C)Cc1cc(-c2ccc3c(c2)CN(C2CCC(=O)NC2=O)C3=O)n2cncc2c1` (single isomer, unassigned) [Example 17, 3-(5-(7-((methyl ((R*)-1-phenylethyl)amino)methyl)imidazo[1,5-a]pyridin-5-yl)-1-oxoisoindolin-2-yl) piperidine-2,6-dione] registered a DC50 of 10 to 100 nM and a Dmax of 20 to 40%. The same compound displayed an IC50 in test [2] of 1000 to 5000 nM.

In test [1], `O=C1CCC(N2Cc3cc(-c4cc(CN5CCC5)cc5cncn45)ccc3C2=O)C(=O)N1` (stereo not drawn) [Example 2, 3-(5-(7-(azetidin-1-ylmethyl)imidazo[1,5-a]pyridin-5-yl)-1-oxoisoindolin-2-yl) piperidine-2,6-dione] came in with a DC50 of 100 to 1000 nM and a Dmax of 40 to 60%. The compound also showed an IC50 in test [2] of 100 to 500 nM.

In the case of `O=C1CCC(N2Cc3cc(-c4cc(CN5CCOCC5)cc5cncn45)ccc3C2=O)C(=O)N1` (stereo not drawn) [Example 4, 3-(5-(7-(morpholinomethyl)imidazo[1,5-a]pyridin-5-yl)-1-oxoisoindolin-2-yl) piperidine-2,6-dione], in test [1], the DC50 is > 1000 nM and the Dmax was 20 to 40%. For the same compound, in test [2], the IC50 is 1000 to 5000 nM.

Turning to `COC1CCN(Cc2cc(-c3ccc4c(c3F)CN(C3CCC(=O)NC3=O)C4=O)nc3c(NC(C)C)n[nH]c23)CC1` (stereo not drawn) [Example 283, 3-(4-fluoro-5-(3-(isopropylamino)-7-((4-methoxypiperidin-1-yl)methyl)-1H-pyrazolo[4,3-b]pyridin-5-yl)-1-oxoisoindolin-2-yl) piperidine-2,6-dione], the DC50 was 1 to 10 nM in test [3], 1 to 10 nM in test [1] and > 10000 nM in test [4]. Further, the results for the Dmax in test [3], in test [1] and in test [4] were > 80%, > 80% and < 20%, respectively.

For the compound `CC(C)Nc1n[nH]c2c(CN3CCC4(CC3)COC4)cc(-c3ccc4c(c3F)CN(C3CCC(=O)NC3=O)C4=O)nc12` (stereo not drawn) [Example 284, 3-(5-(7-((2-oxa-7-azaspiro[3.5]nonan-7-yl)methyl)-3-(isopropylamino)-1H-pyrazolo[4,3-b]pyridin-5-yl)-4-fluoro-1-oxoisoindolin-2-yl) piperidine-2,6-dione], the DC50 in test [3] was 1 to 10 nM; in test [1] it was 10 to 100 nM; in test [4], 10 to 100 nM. Moreover, the Dmax in test [3] is > 80%; in test [1], 60 to 80%; in test [4] it was 20 to 40%.

Take `CC(C)Nc1n[nH]c2c(CN3CC4COCC4C3)cc(-c3ccc4c(c3F)CN(C3CCC(=O)NC3=O)C4=O)nc12` (stereo not drawn) [Example 288, 3-(4-fluoro-5-(3-(isopropylamino)-7-((tetrahydro-1H-furo[3,4-c]pyrrol-5 (3H)-yl)methyl)-1H-pyrazolo[4,3-b]pyridin-5-yl)-1-oxoisoindolin-2-yl) piperidine-2,6-dione]: the DC50 was 1 to 10 nM in test [3], 10 to 100 nM in test [1] and > 10000 nM in test [4]. The Dmax in test [3] is > 80%; in test [1], 60 to 80%; in test [4], < 20%.

For the compound `CC(C)Nc1n[nH]c2c(CN3CC4(CCOCC4)C3)cc(-c3ccc4c(c3F)CN(C3CCC(=O)NC3=O)C4=O)nc12` (stereo not drawn) [Example 289, 3-(5-(7-((7-oxa-2-azaspiro[3.5]nonan-2-yl)methyl)-3-(isopropylamino)-1H-pyrazolo[4,3-b]pyridin-5-yl)-4-fluoro-1-oxoisoindolin-2-yl) piperidine-2,6-dione], the DC50 in test [3] was 1 to 10 nM; in test [1] it was 1 to 10 nM; in test [4] it was 10 to 100 nM. The Dmax in test [3] was > 80%; in test [1], > 80%; in test [4], 40 to 60%.

As for `CC(C)Nc1n[nH]c2c(CN3CCC(C(F)(F)F)CC3)cc(-c3ccc4c(c3F)CN(C3CCC(=O)NC3=O)C4=O)nc12` (stereo not drawn) [Example 290, 3-(4-fluoro-5-(3-(isopropylamino)-7-((4-(trifluoromethyl)piperidin-1-yl)methyl)-2H-pyrazolo[4,3-b]pyridin-5-yl)-1-oxoisoindolin-2-yl) piperidine-2,6-dione], the DC50 in test [3] is 1 to 10 nM; in test [1], 10 to 100 nM; in test [4], > 10000 nM. In addition, the Dmax was 60 to 80% in test [3], 60 to 80% in test [1] and < 20% in test [4].

In the case of `CCNc1n[nH]c2c(CN3CCCC3)cc(-c3ccc4c(c3F)CN(C3CCC(=O)NC3=O)C4=O)nc12` (stereo not drawn) [Example 291, 3-(5-(3-(ethylamino)-7-(pyrrolidin-1-ylmethyl)-1H-pyrazolo[4,3-b]pyridin-5-yl)-4-fluoro-1-oxoisoindolin-2-yl) piperidine-2,6-dione], the DC50 was < 1 nM in test [3], < 1 nM in test [1] and 10 to 100 nM in test [4]. Moreover, the Dmax in test [3] is > 80%; in test [1] it was > 80%; in test [4], 40 to 60%.

As to `CC1c2cc(-c3cc(CN4CCCC4)c4ccn(C5CS(=O)(=O)C5)c4n3)ccc2C(=O)N1C1CCC(=O)NC1=O` (stereo not drawn) [Example 292, 3-(5-(1-(1,1-dioxidothietan-3-yl)-4-(pyrrolidin-1-ylmethyl)-1H-pyrrolo[2,3-b]pyridin-6-yl)-3-methyl-1-oxoisoindolin-2-yl) piperidine-2,6-dione], the DC50 in test [3] was 1 to 10 nM; in test [1], 1 to 10 nM; in test [4], 10 to 100 nM. Further, the figures for the Dmax in test [3], in test [1] and in test [4] were > 80%, > 80% and 20 to 40%, respectively.

As for `CC(C)Nc1n[nH]c2c(CN3CCCC3)cc(-c3ccc4c(c3)C(C)N(C3CCC(=O)NC3=O)C4=O)nc12` (stereo not drawn) [Example 293, 3-(5-(3-(isopropylamino)-7-(pyrrolidin-1-ylmethyl)-1H-pyrazolo[4,3-b]pyridin-5-yl)-3-methyl-1-oxoisoindolin-2-vl) piperidine-2,6-dione], the DC50 in test [3] was 1 to 10 nM; in test [1], 1 to 10 nM; in test [4], > 10000 nM. The Dmax in test [3] was > 80%; in test [1] it was > 80%; in test [4], < 20%.

`O=C1CCC(N2Cc3c(ccc(-c4cc(CN5CCCC5)c5[nH]nc(NC6CCC6)c5n4)c3F)C2=O)C(=O)N1` (stereo not drawn) [Example 295, 1.3-(5-(3-(cyclobutylamino)-7-(pyrrolidin-1-ylmethyl)-1H-pyrazolo[4,3-b]pyridin-5-yl)-4-fluoro-1-oxoisoindolin-2-yl) piperidine-2,6-dione]: the DC50 in test [3] was < 1 nM; in test [1], 1 to 10 nM; in test [4], 10 to 100 nM. Moreover, the Dmax in test [3] was > 80%; in test [1] it was > 80%; in test [4] it was 40 to 60%.

On to `Nc1[nH]nc2c(CN3CCCC3)cc(-c3ccc4c(c3F)CN(C3CCC(=O)NC3=O)C4=O)nc12` (stereo not drawn) [Example 318, 3-(5-(3-amino-7-(pyrrolidin-1-ylmethyl)-2H-pyrazolo[4,3-b]pyridin-5-yl)-4-fluoro-1-oxoisoindolin-2-yl) piperidine-2,6-dione], for which the DC50 in test [3] lay in the range of 1 to 10 nM; in test [1] it was 1 to 10 nM; in test [4], 10 to 100 nM. In addition, the Dmax in test [3] was > 80%; in test [1], > 80%; in test [4], 60 to 80%.
